The values that follow are results of earlier work, collected in patent US20190110514A1, “KITS COMPRISING SATIETY-INDUCING FORMULATIONS” (PERORA GMBH, priority 2016, published 2019).

Series [1] relates to satiety signalling. The settings on record: infusion into the duodenum by feeding tube.
The conditions of series [2]: rat feeding study; independent from intake.

For `CCCCCCCC/C=C\CCCCCCCC(=O)O` [oleic acid], the satiety signalling result in series [1] was “strong satiety signalling”.

In the case of `CCCCCCCCCCCCCCCCCC(=O)OCC(COC(=O)CCCCCCCCCCCCCCCCC)OC(=O)CCCCCCCCCCCCCCCCC` [tristearin], the “true digestibility of stearic acid from tristearin” value in series [2] is 0.15 g/g.

Regarding `CCCCCCCCCCCC(=O)O` [lauric acid], the satiety signalling entry in series [1] is on record as “strong satiety signalling”.
